What was measured:
[1] = system: Mus musculus; assay: Tested for biodistribution of radioactivity after 1 hr of intravenous injection in mice blood; assay type: ADME, organism-based; conditions: in vivo
[2] = system: Mus musculus; assay: Tested for biodistribution of radioactivity after 30 min of intravenous injection in mice blood; assay type: ADME, organism-based; conditions: in vivo, 0.5 h
[3] = system: Mus musculus; assay: Tested for biodistribution of radioactivity after 3h of intravenous injection in mice blood; assay type: ADME, organism-based; conditions: in vivo
[4] = system: Mus musculus; assay: Tested for biodistribution of radioactivity after 6 hr of intravenous injection in mice blood; assay type: ADME, organism-based; conditions: in vivo
[5] = system: Mus musculus; assay: Tested for biodistribution of radioactivity after 5 min of intravenous injection in mice liver; assay type: ADME, organism-based; conditions: in vivo
[6] = system: Mus musculus; assay: Tested for biodistribution of radioactivity after 5 min of intravenous injection in mice neck; assay type: ADME, organism-based; conditions: in vivo
[7] = system: Mus musculus; assay: Tested for biodistribution of radioactivity after 5 min of intravenous injection in mice spleen; assay type: ADME, organism-based; conditions: in vivo
[8] = system: Mus musculus; assay: Tested for biodistribution of radioactivity after 5 min of intravenous injection in mice stomach; assay type: ADME, organism-based; conditions: in vivo
[9] = system: Mus musculus; assay: Tested for biodistribution of radioactivity after 5 min of intravenous injection in mice kidneys; assay type: ADME, organism-based; conditions: in vivo
[10] = system: Mus musculus; assay: Tested for biodistribution of radioactivity after 6 hr of intravenous injection in mice feces; assay type: ADME, organism-based; conditions: in vivo
[11] = system: Mus musculus; assay: Tested for biodistribution of radioactivity after 6 hr of intravenous injection in mice intestines; assay type: ADME, organism-based, Intestine; conditions: in vivo
[12] = system: Mus musculus; assay: Tested for biodistribution of radioactivity after 6 hr of intravenous injection in mice kidneys; assay type: ADME, organism-based, Kidney; conditions: in vivo
[13] = system: Mus musculus; assay: Tested for biodistribution of radioactivity after 6 hr of intravenous injection in mice liver; assay type: ADME, organism-based; conditions: in vivo
[14] = system: Mus musculus; assay: Tested for biodistribution of radioactivity after 6 hr of intravenous injection in mice neck; assay type: ADME, organism-based; conditions: in vivo
[15] = system: Mus musculus; assay: Tested for biodistribution of radioactivity after 30 min of intravenous injection in mice neck; assay type: ADME, organism-based; conditions: in vivo, 0.5 h
[16] = system: Mus musculus; assay: Tested for biodistribution of radioactivity after 30 min of intravenous injection in mice spleen; assay type: ADME, organism-based; conditions: in vivo, 0.5 h
[17] = system: Mus musculus; assay: Tested for biodistribution of radioactivity after 30 min of intravenous injection in mice stomach; assay type: ADME, organism-based; conditions: in vivo, 0.5 h
[18] = system: Mus musculus; assay: Tested for biodistribution of radioactivity after 3h of intravenous injection in mice intestines; assay type: ADME, organism-based, Intestine; conditions: in vivo
[19] = system: Mus musculus; assay: Tested for biodistribution of radioactivity after 3h of intravenous injection in mice kidneys; assay type: ADME, organism-based, Kidney; conditions: in vivo
[20] = system: Mus musculus; assay: Tested for biodistribution of radioactivity after 3h of intravenous injection in mice neck; assay type: ADME, organism-based; conditions: in vivo
[21] = system: Mus musculus; assay: Tested for biodistribution of radioactivity after 3h of intravenous injection in mice spleen; assay type: ADME, organism-based; conditions: in vivo
[22] = system: Mus musculus; assay: Tested for biodistribution of radioactivity after 3h of intravenous injection in mice stomach; assay type: ADME, organism-based; conditions: in vivo
[23] = system: Mus musculus; assay: Tested for biodistribution of radioactivity after 1 hr of intravenous injection in mice intestines; assay type: ADME, organism-based, Intestine; conditions: in vivo
[24] = system: Mus musculus; assay: Tested for biodistribution of radioactivity after 1 hr of intravenous injection in mice liver; assay type: ADME, organism-based; conditions: in vivo
[25] = system: Mus musculus; assay: Tested for biodistribution of radioactivity after 6 hr of intravenous injection in mice spleen; assay type: ADME, organism-based; conditions: in vivo
[26] = system: Mus musculus; assay: Tested for biodistribution of radioactivity after 6 hr of intravenous injection in mice stomach; assay type: ADME, organism-based; conditions: in vivo
[27] = system: Mus musculus; assay: Tested for biodistribution of radioactivity after 6 hr of intravenous injection in mice urine; assay type: ADME, organism-based; conditions: in vivo
[28] = system: Mus musculus; assay: Tested for biodistribution of radioactivity after 1 hr of intravenous injection in mice neck; assay type: ADME, organism-based; conditions: in vivo
[29] = system: Mus musculus; assay: Tested for biodistribution of radioactivity after 1 hr of intravenous injection in mice spleen; assay type: ADME, organism-based; conditions: in vivo
[30] = system: Mus musculus; assay: Tested for biodistribution of radioactivity after 1 hr of intravenous injection in mice stomach; assay type: ADME, organism-based; conditions: in vivo
[31] = system: Mus musculus; assay: Tested for biodistribution of radioactivity after 24 hr of intravenous injection in mice feces; assay type: ADME, organism-based; conditions: in vivo
[32] = system: Mus musculus; assay: Tested for biodistribution of radioactivity after 24 hr of intravenous injection in mice intestines; assay type: ADME, organism-based, Intestine; conditions: in vivo
[33] = system: Mus musculus; assay: Tested for biodistribution of radioactivity after 24 hr of intravenous injection in mice kidneys; assay type: ADME, organism-based, Kidney; conditions: in vivo
[34] = system: Mus musculus; assay: Tested for biodistribution of radioactivity after 24 hr of intravenous injection in mice liver; assay type: ADME, organism-based; conditions: in vivo
[35] = system: Mus musculus; assay: Tested for biodistribution of radioactivity after 24 hr of intravenous injection in mice neck; assay type: ADME, organism-based; conditions: in vivo
[36] = system: Mus musculus; assay: Tested for biodistribution of radioactivity after 24 hr of intravenous injection in mice spleen; assay type: ADME, organism-based; conditions: in vivo
[37] = system: Mus musculus; assay: Tested for biodistribution of radioactivity after 24 hr of intravenous injection in mice stomach; assay type: ADME, organism-based; conditions: in vivo
[38] = system: Mus musculus; assay: Tested for biodistribution of radioactivity after 30 min of intravenous injection in mice kidneys; assay type: ADME, organism-based; conditions: in vivo, 0.5 h
[39] = system: Mus musculus; assay: Tested for biodistribution of radioactivity after 30 min of intravenous injection in mice lintestines; assay type: ADME, organism-based, Intestine; conditions: in vivo, 0.5 h
[40] = system: Mus musculus; assay: Tested for biodistribution of radioactivity after 30 min of intravenous injection in mice liver; assay type: ADME, organism-based; conditions: in vivo, 0.5 h
[41] = system: Mus musculus; assay: Tested for biodistribution of radioactivity after 3h of intravenous injection in mice liver; assay type: ADME, organism-based; conditions: in vivo
[42] = system: Mus musculus; assay: Tested for biodistribution of radioactivity after 1 hr of intravenous injection in mice kidneys; assay type: ADME, organism-based, Kidney; conditions: in vivo
[43] = system: Mus musculus; assay: Tested for biodistribution of radioactivity after 24 hr of intravenous injection in mice urine; assay type: ADME, organism-based; conditions: in vivo
[44] = system: Mus musculus; assay: Tested for biodistribution of radioactivity after 24 hr of intravenous injection in mice blood; assay type: ADME, organism-based; conditions: in vivo
[45] = system: Mus musculus; assay: Tested for biodistribution of radioactivity after 5 min of intravenous injection in mice blood; assay type: ADME, organism-based; conditions: in vivo
[46] = system: Mus musculus; assay: Tested for biodistribution of radioactivity after 5 min of intravenous injection in mice intestines; assay type: ADME, organism-based, Intestine; conditions: in vivo

Structure (SMILES): CN[C@@H](CSC1CC(=O)N(CCOC(=O)CNC(=O)c2cccc(I)c2)C1=O)C(=O)O (stereo partly specified)
- Dose/g [1]: 0.24%
- Dose/g [2]: 1.01%
- Dose/g [3]: 0.09%
- Dose/g [4]: 0.03%
- Dose/organ [5]: 92.56%
- Dose/organ [6]: 0.07%
- Dose/organ [7]: 0.21%
- Dose/organ [8]: 0.18%
- Dose/organ [9]: 0.65%
- Dose/organ [10]: 2.3%
- Dose/organ [11]: 0.84%
- Dose/organ [12]: 0.06%
- Dose/organ [13]: 0.58%
- Dose/organ [14]: 0.02%
- Dose/organ [15]: 0.11%
- Dose/organ [16]: 0.12%
- Dose/organ [17]: 0.59%
- Dose/organ [18]: 2.54%
- Dose/organ [19]: 0.14%
- Dose/organ [20]: 0.02%
- Dose/organ [21]: 0.07%
- Dose/organ [22]: 0.52%
- Dose/organ [23]: 6.11%
- Dose/organ [24]: 3.98%
- Dose/organ [25]: 0.07%
- Dose/organ [26]: 0.45%
- Dose/organ [27]: 78.35%
- Dose/organ [28]: 0.06%
- Dose/organ [29]: 0.1%
- Dose/organ [30]: 0.56%
- Dose/organ [31]: 3.52%
- Dose/organ [32]: 0.05%
- Dose/organ [33]: 0.02%
- Dose/organ [34]: 0.27%
- Dose/organ [35]: 0.01%
- Dose/organ [36]: 0.04%
- Dose/organ [37]: 0.05%
- Dose/organ [38]: 5.34%
- Dose/organ [39]: 9.99%
- Dose/organ [40]: 12.28%
- Dose/organ [41]: 1.56%
- Dose/organ [42]: 2.79%
- Dose/organ [43]: 90.6%
- Dose/g [44]: 0.02%
- Dose/g [45]: 0.45%
- Dose/organ [46]: 0.28%
